28 compounds from patent publication US20240101531A1, “PYRIDINAMINE DERIVATIVES AND THEIR USE AS POTASSIUM CHANNEL MODULATORS” (Xenon Pharmaceuticals Inc., priority 2022, published 2024) can be followed below.

This assay has as its target human KV7.2/KV7.3 (Homo sapiens (Human), UniProt O43525+O43526). Nature of the assay: Potassium flux assay (IPG-2 AM dye). It is filed as cell-based. The following applies: TREX HEK 293 or HEK 293 cells expressing human KV7.2/KV7.3; arithmetic mean values. In outline: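 EC50 from 16 concentrations (2-fold dilutions, top 30 μM), scaled between DMSO baseline and a known KV7.x modulator maximum. Signal is IPG-2 AM fluorescence (ex 530/em 558 nm) after 10 mM KCl challenge buffer addition, following 20 min room-temperature compound exposure of HEK 293 or TREX HEK 293 cells stably expressing human KV7.2/KV7.3.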

The EC50 is the concentration that produces a half-maximal response. Turning to `CC(F)(F)C1(COc2ccc3c(Nc4cnc(Cl)nc4)nccc3c2)COC1` [Example 355, N-(2-chloropyrimidin-5-yl)-6-((3-(1,1-difluoroethyl)oxetan-3-yl)methoxy)isoquinolin-1-amine], the EC50 is < 1000 nM. As to `CC(C)(C)OC(=O)N[C@H]1CCC[C@@H](Oc2ccc3c(Nc4cnc(Cl)nc4)nccc3c2)C1` [Example 356, tert-butyl ((1S,3R)-3-((1-((2-chloropyrimidin-5-yl)amino)isoquinolin-6-yl)oxy)cyclohexyl)carbamate], the 50% effective concentration (EC50) was < 1000 nM. For `O[C@H]1CCC[C@@H](Oc2ccc3c(Nc4cnc(Cl)nc4)nccc3c2)C1` [Example 359, (1 S,3R)-3-((1-((2-chloropyrimidin-5-yl)amino)isoquinolin-6-yl)oxy)cyclohexan-1-ol], the EC50 was < 1000 nM.

Consider `NC(=O)C1(COc2ccc3c(Nc4cnc(Cl)nc4)nccc3c2)CC1` [Example 361, 1-(((1-((2-chloropyrimidin-5-yl)amino)isoquinolin-6-yl)oxy)methyl)cyclopropane-1-carboxamide], for which the EC50 is < 1000 nM. For `Clc1ccc(Nc2nccc3cc(OCC4(OCc5ccncc5)CC4)ccc23)cn1` [Example 362, N-(6-chloropyridin-3-yl)-6-((1-(pyridin-4-ylmethoxy)cyclopropyl)methoxy)isoquinolin-1-amine], the EC50 was 1000 to 10000 nM. As to `FC1(COc2ccc3c(Nc4ccc(Cl)nc4)nccc3c2)CCOC1` (stereo not shown) [Example 363, N-(6-chloropyridin-3-yl)-6-((3-fluorotetrahydrofuran-3-yl)methoxy)isoquinolin-1-amine], the EC50 was < 1000 nM.

For `Clc1ccc(Nc2nccc3cc(OCc4cnoc4)ccc23)cn1` [Example 368, N-(6-chloropyridin-3-yl)-6-(isoxazol-4-ylmethoxy)isoquinolin-1-amine], the concentration giving a half-maximal response (EC50) was < 1000 nM. Consider `N#CC1(COc2ccc3c(Nc4cnc(Cl)nc4)nccc3c2)CCC1` [Example 369, 1-(((1-((2-chloropyrimidin-5-yl)amino)isoquinolin-6-yl)oxy)methyl)cyclobutane-1-carbonitrile], for which the EC50 was < 1000 nM. Take `COc1ncc(Nc2nccc3cc(OCC4(C)COC4)ccc23)cn1` [Example 370, N-(2-methoxypyrimidin-5-yl)-6-((3-methyloxetan-3-yl)methoxy)isoquinolin-1-amine]: the EC50 is < 1000 nM.

With `COc1ncc(Nc2nccc3cc(OCc4cnn(C)c4)ccc23)cn1` [Example 371, N-(2-methoxypyrimidin-5-yl)-6-((1-methyl-1H-pyrazol-4-yl)methoxy)isoquinolin-1-amine], the EC50 is < 1000 nM. Take `COc1ncc(Nc2nccc3cc(OCC4CC4)ccc23)cn1` [Example 372, 6-(cyclopropylmethoxy)-N-(2-methoxypyrimidin-5-yl)isoquinolin-1-amine]: the concentration giving a half-maximal response (EC50) was in the range of 1000 to 10000 nM. As for `COc1ncc(Nc2nccc3cc(OCC4(C#N)CC4)ccc23)cn1` [Example 373, 1-(((1-((2-methoxypyrimidin-5-yl)amino)isoquinolin-6-yl)oxy)methyl)cyclopropane-1-carbonitrile], the half-maximal effective concentration (EC50) was < 1000 nM. For the compound `Cn1cc(COc2ccc3c(Nc4cnc(Cl)c(O)c4)nccc3c2)cn1` [Example 374, 2-chloro-5-((6-((1-methyl-1H-pyrazol-4-yl)methoxy)isoquinolin-1-yl)amino)pyridin-3-ol], the concentration for a half-maximal effect (EC50) is < 1000 nM. Regarding `O=C(N[C@@H]1CCC[C@H](Oc2ccc3c(Nc4cnc(Cl)nc4)nccc3c2)C1)C(F)(F)F` [Example 375, N-((1R,3S)-3-((1-((2-chloropyrimidin-5-yl)amino)isoquinolin-6-yl)oxy)cyclohexyl)-2,2,2-trifluoroacetamide], the EC50 is 1000 to 10000 nM.

With `CC(=O)N[C@@H]1CCC[C@H](Oc2ccc3c(Nc4cnc(Cl)nc4)nccc3c2)C1` [Example 376, N-((1R,3S)-3-((1-((2-chloropyrimidin-5-yl)amino)isoquinolin-6-yl)oxy)cyclohexyl)acetamide], the EC50 is < 1000 nM. In the case of `O=C(N[C@H]1CCC[C@@H](Oc2ccc3c(Nc4cnc(Cl)nc4)nccc3c2)C1)C(F)(F)F` [Example 377, N-((1 S,3R)-3-((1-((2-chloropyrimidin-5-yl)amino)isoquinolin-6-yl)oxy)cyclohexyl)-2,2,2-trifluoroacetamide], the half-maximal effective concentration (EC50) was < 1000 nM.

For `CC(=O)N[C@H]1CCC[C@@H](Oc2ccc3c(Nc4cnc(Cl)nc4)nccc3c2)C1` [Example 378, N-((1 S,3R)-3-((1-((2-chloropyrimidin-5-yl)amino)isoquinolin-6-yl)oxy)cyclohexyl)acetamide], the EC50 is < 1000 nM.

Take `Clc1ccc(Nc2nccc3cc(OCc4cn[nH]c4C4CC4)ccc23)cn1` [Example 379, N-(6-chloropyridin-3-yl)-6-((5-cyclopropyl-1H-pyrazol-4-yl)methoxy)isoquinolin-1-amine]: the EC50 is < 1000 nM. As to `FC(F)Cn1cc(COc2ccc3c(Nc4ccc(Cl)nc4)nccc3c2)cn1` [Example 380, N-(6-chloropyridin-3-yl)-6-((1-(2,2-difluoroethyl)-1H-pyrazol-4-yl)methoxy)isoquinolin-1-amine], the EC50 is < 1000 nM. For the compound `Clc1ncc(Nc2nccc3cc(OCc4cn[nH]c4)ccc23)cn1` [Example 381, 6-((1H-pyrazol-4-yl)methoxy)-N-(2-chloropyrimidin-5-yl)isoquinolin-1-amine], the half-maximal effective concentration (EC50) is < 1000 nM. As to `Clc1ncc(Nc2nccc3cc(OC[C@H]4COCCO4)ccc23)cn1` [Example 382, (R)-6-((1,4-dioxan-2-yl)methoxy)-N-(2-chloropyrimidin-5-yl)isoquinolin-1-amine], the half-maximal effective concentration (EC50) is < 1000 nM. To `Clc1ncc(Nc2nccc3cc(OC[C@@H]4COCCO4)ccc23)cn1` [Example 383, (S)-6-((1,4-dioxan-2-yl)methoxy)-N-(2-chloropyrimidin-5-yl)isoquinolin-1-amine] belongs < 1000 nM; to `[2H]C([2H])(Oc1ccc2c(Nc3cnc(Cl)nc3)nccc2c1)C1(F)CC1` [Example 384, N-(2-chloropyrimidin-5-yl)-6-((1-fluorocyclopropyl)methoxy-d2)isoquinolin-1-amine], < 1000 nM; to `CC(Oc1ccc2c(Nc3cnc(Cl)nc3)nccc2c1)C1(C#N)CC1` (stereo not shown) [Example 385, 1-(1-((1-((2-chloropyrimidin-5-yl)amino)isoquinolin-6-yl)oxy)ethyl)cyclopropane-1-carbonitrile], < 1000 nM. To `[2H]C([2H])(Oc1ccc2c(Nc3ccc(Cl)nc3)nccc2c1)c1cnn(C)c1` [Example 386, N-(6-chloropyridin-3-yl)-6-((1-methyl-1H-pyrazol-4-yl)methoxy-d2)isoquinolin-1-amine] belongs < 1000 nM; to `Clc1ccc(Nc2nccc3cc(OCCc4ncccn4)ccc23)cn1` [Example 387, N-(6-chloropyridin-3-yl)-6-(2-(pyrimidin-2-yl)ethoxy)isoquinolin-1-amine], 1000 to 10000 nM. Turning to `COc1ncc(Nc2nccc3cc(OCc4cn[nH]c4C)ccc23)cn1` [Example 388, N-(2-methoxypyrimidin-5-yl)-6-((5-methyl-1H-pyrazol-4-yl)methoxy)isoquinolin-1-amine], the concentration giving a half-maximal response (EC50) is < 1000 nM. As to `Clc1ncc(Nc2nccc3cc(OCCCc4cn[nH]c4)ccc23)cn1` [Example 389, 6-(3-(1H-pyrazol-4-yl)propoxy)-N-(2-chloropyrimidin-5-yl)isoquinolin-1-amine], the EC50 was < 1000 nM.
